Source: a melting point compilation (Tetko et al.; mined from patent text by program, amines drawn as free bases though some values may be those of a salt)

melting point	Compound
216 to 218 °C	Cc1ccc(C(=O)Nc2ccc(N3CCOCC3)c(C(F)(F)F)c2)cc1Nc1nccc(-c2cccnc2)n1
204 to 209 °C	CS(=O)(=O)c1ccc(-c2ccc3cnc(Nc4ccc(N5CCCCC5)cc4)nn23)cc1
119 °C	CCOC(=O)c1c(N2CCN(C(=O)c3ccco3)CC2)c2cc(F)cnc2n(Cc2ccccc2)c1=O
85 to 87 °C	O=C(CCl)N1CCC(Cc2ccc(F)cc2)CC1
206 to 207 °C	C[C@]12CCC(=O)N[C@@H]1CCc1cc(-c3nccs3)ccc12
277 to 279 °C	COc1cc(N)c(Cl)cc1C(=O)NC1CNCCn2c1nc(-c1ccncn1)cc2=O (configuration not stated)
> 232 °C	CCC(CC)N1CSc2cnc(N)nc21
168 to 170 °C	O=C1N(c2ccccc2)CCN1C1CCN(Cc2ccccc2)CC1
183 to 189 °C	O=C(c1ccccc1)N1CCC(Cc2ccccc2)(C(=O)O)CC1
94 to 95 °C	COC(=O)C1CCCn2c(=O)n(CCCl)c(=O)n21 (configuration not stated)
270 to 273 °C	O=C(Nc1nc(-c2ccco2)c(C(=O)c2ccnc(N3CCOCC3)c2)s1)c1ccncc1
174 °C	CCC(=O)C1=C(O)CC(c2c(C)cc(C)c([N+](=O)[O-])c2C)CC1=O (configuration not stated)
195 to 196 °C	CCOC(=O)c1sc(S(C)(=O)=O)c2c1CCc1c(Br)nn(C)c1-2
171 to 172 °C	CC(=O)NC1CCc2c(n(C)c3ccccc23)C1 (configuration not stated)
110 °C	CC#CCOc1ccc(S(=O)(=O)C2(C(=O)O)CCN(Cc3ccc(C#N)cc3)CC2)cc1
89 °C	CCOC(=O)C1=C2NCCN2CCC1
260 to 263 °C	NNC(=O)c1ncn2c1C1CCN1C(=O)c1sccc1-2 (configuration not stated)
104 to 106 °C	CN1CCCCC1CCc1ccccc1NC(=O)C#Cc1ccccc1 (configuration not stated)

melting point	Compound
105 to 110 °C	CC(C)(C)OC(=O)Nc1ccc(-c2ccoc2)cc1[N+](=O)[O-]
126 °C	COc1cc2c(cc1OC)CN(CN1CCc3cc(OC)c(OC)cc3C1)CC2
113 to 114 °C	Cc1cc(CN2CCN(C(C)C)CC2)cc2c1Cc1c(-c3ccsc3)n[nH]c1-2
> 200 °C	O=C(c1cccs1)c1cnn2c(-c3cccc(N4CCCC4=O)c3)ccnc12
144 to 146 °C	C#CCc1c(C)nc2c(OCc3c(C)cccc3N)cccn12
140 to 143 °C	CCCNc1nc(NCCC)nc(N2CCN(C(=O)Nc3cc(C)c(C)nc3OC)CC2)n1
78 °C	NS(=O)(=O)c1ccccc1N1CCCC1
163 to 164 °C	CC(=O)NCc1c(C)cc(CN2CCN(c3ccc(F)cc3)CC2)cc1C
122 to 123 °C	Cc1nc(N2CCOCC2)sc1C
131 to 133 °C	COc1ccc2c3ccnc(C)c3n(Cc3ccccc3)c2c1
129 to 130 °C	CNCc1csc(-c2cccc(C3=Nc4cc(N(C)C)c(Cl)cc4NC(=O)C3)c2)n1
142 to 145 °C	COc1ccc(-c2nc3n(c2-c2ccccn2)CCC3)cc1
214 to 215 °C	COc1cc(C)nc2nc(S(=O)(=O)Nc3c(Cl)cccc3Cl)nn12
100 °C	Cc1cc(-n2ccnc2)c2cccc(OCc3c(Cl)ccc(S(=O)(=O)N4CCC[C@H]4C(=O)NCC4CC4)c3Cl)c2n1
109 to 112 °C	CNC(=O)c1ccccc1Nc1nc(Nc2cc3c(cc2OC)CCN(CCOC)CC3)ncc1Cl
170 to 171 °C	Cc1cccn2c(=O)c(C(=O)NC3CCCC3)cnc12
196 to 197 °C	CCC(C)C(=O)Nc1nn(C)c2c1sc1cc(N)ccc12 (configuration not stated)

Second part, the compound before the results:

Compound	melting point
O=C1c2ccccc2C2(O)Oc3cc4ccccc4cc3C12O (configuration not stated)	220 to 221 °C
O=C(O)c1ccccc1C(=O)c1ccccc1Cl	112 to 116 °C
O=C(O)CCc1cnoc1-c1ccc(F)cc1	126 to 127 °C
O=C(NNc1nc(C(F)(F)F)nc(-c2ccncc2)c1-c1ccc(F)cc1)C(F)(F)F	240 to 242 °C
S=C(Nc1ccc(Sc2ccc3ccccc3n2)cc1)Nc1ccc(Cl)c(Cl)c1	125 to 126 °C
COc1ccc(-c2c(NCCc3cccc(C(F)(F)F)c3)c(=O)c2=O)cc1	220 to 222 °C
NC(=NCC(F)(F)F)Nc1ccnc(CSCCNc2nc(N)n[nH]2)n1	199 to 201 °C
CS(=O)(=O)c1ccc(Oc2ccc3[nH]c(C4=NCC(CC(=O)NCC(F)(F)F)S4)cc3c2)cn1 (configuration not stated)	234 to 235 °C
Nc1ccc2c(c1)C(=O)N(c1ccc(C(=O)O)cc1)C2=O	270 to 271 °C
CC(=O)C1(COC(=O)Oc2ccccc2)CC2C=CC1CC2 (configuration not stated)	58 to 60 °C
COC(=O)c1cc(OCc2ccccc2)c(OCc2ccccc2)c(OCc2ccccc2)c1	102 to 103 °C
CC(=O)Nc1cccc(-c2ccc3nnn(Cc4ccc5ncccc5c4)c3n2)c1	198 to 201 °C
O=[N+]([O-])c1nccn1CCCl	85 to 87 °C
CCOC(=O)C(=CNc1ccc(F)c(Cl)c1)C(=O)c1ccccc1Cl	96 to 102 °C
COc1cc(C(C)C)c2c(c1)S(=O)(=O)N(COC(=O)C1CCC(=O)N1)C2=O (configuration not stated)	159 to 160 °C
CCCCCCCCSCCSc1nc(N)n[nH]1	85 to 86 °C
COc1ccc(Nc2ccc(OCc3ccccc3)cc2)c(C(C)=O)c1	80 to 81.5 °C
CCN(CC)c1c(Cl)cc(C(O)CNC(C)(C)C)cc1Cl (configuration not stated)	93 to 96 °C
CC1=C(C(=O)OCC[Si](C)(C)C)C(c2cccc([N+](=O)[O-])c2)C(C(=O)OCC[Si](C)(C)C)=C(C)N1	120 °C
Cc1cc(CCCCCOc2cc(Cl)c(-c3nnc(C)o3)c(Cl)c2)on1	71 to 72 °C
COc1ccccc1NC(=O)c1ccc([N+](=O)[O-])cc1	146 to 147 °C

Compound	melting point
COc1cc(C)c(C(=O)c2c(Cl)cccc2Cl)c(OC(=O)Cc2ccccc2)c1OC	106 °C
CCCCCOc1ccc(C(=O)NCCCCCCCNC(=O)c2ccc(OCCCCC)cc2)cc1	155 to 156 °C
CCCNCCc1ccc(NS(=O)(=O)c2ccc(Br)cc2)cc1	141 to 143 °C
COCOc1c(-c2cccc(C=CC(=O)O)c2)ccc2c1C(C)(C)CCC2(C)C	188 to 189 °C
CCCOc1ccc(OC)cc1-c1ncc(C(N)=O)c(=O)[nH]1	206 to 207 °C
CCCCCCCCCCCCc1ccc(N)c([N+](=O)[O-])c1	69 to 71 °C
CNC(=O)c1cc(C)c(C(c2cc(F)ccc2F)S(=O)(=O)c2ccc(Cl)cc2)cn1 (configuration not stated)	200 to 201 °C
CCOC(=O)Cc1ccc(-c2nc(COc3ccc(COc4nn(-c5ccccc5)cc4/C=C\c4cncn4CC)cc3OC)c(C)o2)cc1	85 to 86 °C
Cc1oc(-c2ccccc2)nc1CNS(=O)(=O)c1ccc(CC2SC(=O)NC2=O)cc1 (configuration not stated)	120 to 122 °C
NC(=O)c1ccc([N+](=O)[O-])c(N2CC2)c1	223 to 224 °C
COc1cc(C)cc(OC)c1C(=O)c1ccccc1N(C)C(=O)CBr	121 °C
CCCc1cc(O)nc(SCc2ccccc2)n1	122 to 126 °C
CCCc1c(OCC2Cc3cc(CC(=O)OC)ccc3O2)ccc(C(C)=O)c1O (configuration not stated)	77 to 78 °C
CN(C)Cc1ccc(Cl)cc1C(=O)c1ccccc1F	91 to 92 °C
Cc1cc(C)cc(-c2cnn3c(-c4cccc(NC(=O)CC(C)C)c4)ccnc23)c1	178 to 180 °C
CC(=O)Nc1cccc(NC(=O)Cc2ccc(-n3c(-c4cccnc4N)nc4ccc(-c5cccnc5)nc43)cc2)c1	142 to 144 °C
CCOC(=O)C=Cc1cccc(Nc2ccc3nc[nH]c3c2)c1	188 to 190 °C
CSC1C(=O)Nc2c(-c3ccccc3)cccc21 (configuration not stated)	164 to 166 °C
C#CC1(OC(C)=O)CCC2C3CCC4=CC(=O)CCC4C3C(C(F)F)CC21C (configuration not stated)	157 to 180 °C
COC(=O)[C@@H](Cc1c[nH]c2ccccc12)NS(=O)(=O)c1ccc(OC)cc1	120 to 122 °C
OCC1OC(n2c(C(F)(F)F)nc3c(Cl)cc(Cl)cc32)C(O)C1O (configuration not stated)	162 °C

Compound	melting point
CN(C)CCCOc1ccc(-c2nnc(CSCCOc3ccccc3)n2Cc2ccccc2)cc1	88 to 92 °C
COCOc1ccc(C=O)c(Oc2ncc(C(F)(F)F)cc2Cl)c1	93.9 to 94 °C
Cn1cc(-c2cccc(C(F)(F)F)c2)c(=O)c(-n2cncn2)c1	181 to 183 °C
C=C(C)COc1ccc(Br)cc1CN(CC)c1ccc(-c2cc(O)n(C)n2)nn1	151 to 152 °C
O=c1c2ccccc2[nH]c2c(OCCCCBr)cccc12	180 to 181 °C
CCOC(=O)CNc1ncccc1NC(=O)c1cccc(F)c1	134 to 135 °C
CCOC(=O)c1c(-c2ccc(-c3ccccn3)cc2)n(C)n(-c2ccc(C#N)cc2)c1=O	205 to 211 °C
CC(C)c1ccc(CCNc2ncnc3c(F)cccc23)cc1	170 to 172 °C
CCCc1c(OCc2ccc(C(=O)O)cc2F)ccc(C(C)=O)c1O	203 to 206 °C
Cc1cc(NCc2ccccc2)c(C)c2c1OCC2c1ccc(C(C)C)cc1 (configuration not stated)	82 to 83 °C
CC#CCOc1ccc(S(=O)C(C(=O)NO)c2ccc3ccccc3c2)cc1 (configuration not stated)	157 °C
O=S(=O)(c1ccccc1)n1c(Cc2cccc(-c3cc4ccccc4n3S(=O)(=O)c3ccccc3)c2)cc2ccccc21	76 to 78 °C
COC(=O)c1ccc(OC)c2c(I)c(OC)ccc12	120 to 122 °C
O=P(O)(O)C(F)(F)c1ccc(CN(Cc2ccc(C(F)(F)P(=O)(O)O)cc2)S(=O)(=O)c2ccccc2Cl)cc1	170 to 172 °C
NS(=O)(=O)c1ccc(-n2nc(CNC(=O)Nc3cccc(C(F)(F)F)c3)cc2-c2ccccc2)cc1	185 to 190 °C
Nc1ccc(C(O)c2ccccn2)c(OCC(F)(F)F)c1 (configuration not stated)	97 to 99 °C
COc1ccc2c(c1)N=C(NCc1cccnc1)c1ccccc1N2	160 to 161 °C
CCCN(CCc1ccccc1)CCc1cccc2[nH]c(=O)[nH]c12	176 to 177 °C
CC(=O)OC(CCl)c1cccnc1S(N)(=O)=O (configuration not stated)	146 to 147 °C
O=C(O)c1cc(-c2ccc(Br)cc2)c(=O)n(Cc2ccc(Cl)cc2Cl)c1	137 to 139 °C
